Data from patent US5304474A, “Hydrophobic peptide esters and amides” (Board of Regents, The University of Texas System, priority 1991, dated 1994).
Where two headings read alike, the source gives them in different places. Peptide text beside a SMILES is read from it.

How the values were obtained:
[1] = tested on: [^3 H]Leu-Leu-OMe uptake by PBL (facilitated transport); experiment: Competitive inhibition of [3H]Leu-Leu-OMe uptake; type: cell-based, human; conditions: for inhibition at 250 µM: Homo sapiens, unlabeled compound 250 microM
Description: (§1) Human peripheral blood lymphocytes (PBL) were incubated in the presence of [^3 H]labeled Leu-Leu-OMe at 22° C. for varying lengths of time. The incubation mixture was then centrifuged through silicone oil to separate the cells from any unbound or non-internalized [^3 HLeu-Leu-OMe. […] At 37° C., levels of [^3 H]Leu-Leu-OMe accumulation by PBL were increased above those seen at 22° C. (see Table 4).

[2] = molecular target: T1, dipeptidyl peptidase I (DPPI) (Bos taurus, UniProt Q3ZCJ8); experiment: Dipeptidyl peptidase I catalyzed lysis of human RBC; type: cell-based, bovine; conditions: FIG. 12, FIG. 13
T1 sequence (Q3ZCJ8 231-394 limits assumed): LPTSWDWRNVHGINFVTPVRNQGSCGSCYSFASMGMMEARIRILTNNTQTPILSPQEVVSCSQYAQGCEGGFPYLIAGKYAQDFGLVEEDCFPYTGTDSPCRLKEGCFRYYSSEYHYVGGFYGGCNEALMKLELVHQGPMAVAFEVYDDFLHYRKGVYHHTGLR
T1 sequence (Q3ZCJ8 25-134 limits assumed): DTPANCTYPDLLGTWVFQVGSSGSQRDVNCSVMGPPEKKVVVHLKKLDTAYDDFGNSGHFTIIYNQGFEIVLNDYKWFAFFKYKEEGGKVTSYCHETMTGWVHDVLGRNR
T1 sequence (Q3ZCJ8 395-463 limits assumed): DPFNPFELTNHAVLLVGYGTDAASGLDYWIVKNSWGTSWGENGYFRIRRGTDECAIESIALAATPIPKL
Description: The following experiments were carried out to determine whether DPPI could generate a lytic product from Leu-Leu-OMe. In the experiment detailed in FIG. 12, ^51 Cr-labeled human erythrocytes (RBC) were incubated with varying concentrations of Leu-Leu-OMe alone or in the presence of purified bovine DPPI.
In the experiments detailed in FIG. 13, ^51 Cr-labeled RBC's were exposed to various dipeptide esters or amides in the presence or absence of purified DPPI. […] The first observation is probably related to the inability of this enzyme to catalyze transpeptidation of peptide esters containing D-stereoisomers of amino acids. The latter observations are likely to be related to the fact that polymers of Ser-Leu or Leu-Tyr are not hydrophobic and therefore unlikely to enter and disrupt cell membranes.

[3] = tested on: natural killer cells (NK); experiment: NK function: lysis of K562 target cells (51Cr release) after preincubation of lymphocytes with compound; conditions: for NK toxicity / effect on NK function, in words: lymphocytes exposed 15 minutes at room temperature (FIG. 4, FIG. 5)
Description: PBM were separated from heparinized venous blood of healthy donors by centrifugation over sodium diatrizoate-Ficoll gradients (Isolymph, Gallard-Schlesinger Chemical Mfg. Corp., Carle Place, N.Y.).
All cell exposures to the amino acids, dipeptides or their methyl esters were carried out by suspending cells in Dulbecco's phosphate buffered saline (PBS) and incubating them at room temperature with the reagent at the indicated concentration and time interval.
Percent of control cytotoxicity was calculated using the formula: [formula]

[4] = tested on: splenic NK function (YAC-1 tumor targets); experiment: Spleen cell NK function against YAC-1 after tail-vein injection; type: in vivo, C3H/HeJ mice
Description: (§2) Leu-Leu-OMe or Leu-Phe-OMe were suspended in PBS, pH 7.4. Then individual C3H/HeJ mice (25 gram size) were administered by tail-vein injection either 2.5×10^-5 moles (6.5 mg) of Leu-Leu-OMe, 2.5×10^-5 moles (7.1 mg) Leu-Phe-OMe, or an equal volume of the PBS diluent, this dose being about 1×10^-3 moles per kg. […] Subsequent to this quiescent period no difference in activity or appearance in the mice was noted. Two hours post-injection, the mice were sacrificed and their spleen cells were assayed for NK function in a standard 4 hour assay against YAC-1 tumor targets. In all mice, total cell recovery ranged […] spleen cells per animal. […] Thus, Leu-Leu-OMe or Leu-Phe-OMe caused a greater than 75% decrease in splenic lytic activity against YAC-1 tumor targets.

[5] = Activity and appearance of mice post-injection; type: in vivo, C3H/HeJ mice; conditions: 15-30 minutes post-injection, about 1×10^-3 moles per kg tail-vein
Description: as §2

[6] = tested on: peripheral blood lymphocytes (PBL); experiment: [3H]Leu-Leu-OMe uptake/binding by lymphocytes; type: in vitro ADME, human
Description: as §1

[7] = Conversion of [3H]Leu-Leu-OMe in cells to a product which precipitates in 10% TCA; type: in vitro ADME, human; conditions: for Fractional Conversion of [^3 H]Leu--Leu--OMe to a product which Precipitates in 10% TCA: Intact NK, T8 Cells
Description: Additional experiments, detailed in Table 7, were performed to assess the metabolic fate of [^3 H]Leu-Leu-OMe within PBL. Cells were incubated with [^3 H]Leu-Leu-OMe for 15 minutes at 22° C. to permit uptake of this compound and then were washed. If the cells were immediately lysed and 10% trichloroacetic acid (TCA) was added to precipitate higher molecular weight cell proteins and nucleic acids, essentially all of the [^3 H]label remained in the supernatant as anticipated for a small molecular weight peptide which is soluble in 10% TCA.
In experiment 1 of Table 8 non-adherent peripheral blood lymphocytes were incubated in the presence or absence of 250 micro-M unlabeled Leu-Leu-OMe for 15 minutes and then cultured overnight at 37° C. This form of exposure to Leu-Leu-OMe has been shown previously herein to result inloss of NK cells and a substantial fraction of CD8(+) T cells, whereas the majority of CD4(+) lymphocytes are resistant to any toxic effects of this agent and remain viable and functionally intact. […] However, when production of a product which precipitated in 10% TCA was assessed following a second incubation at 37° C. for 30 minutes, it was noted that the LLMe resistant subset of lymphocytes produced almost no detectable amounts of this as yet unidentified product.
In experiment 2 (Table 8), PBL were divided into a CD4(+) T cell (T4 cell)-enriched population and a T8, NK-enriched population by staining with anti-CD4 or anti-CD8 monoclonal antibodies and panning on goat anti-mouse coated petri dishes to enrich for the unstained lymphocyte subsets as previously described (see prior Examples and J. Immunol. 1986 136:1038-1048). Again, it was noted that T4 cells took up less [^3 H]Leu-Leu-OMe during an initial incubation than did a population of lymphocytes enriched for T8 and NK cells. However, the differences in production of a product which precipitated in 10% TCA were even more dramatic. Whereas initial [^3 H]Leu-Leu-Me uptake by T4 cells was approximately 53% of that seen with an equal number of T8 and NK cells, the amount of [^3 H]label appearing in a 10% TCA precipitate of the T4 cell sonicate after a subsequent 30 minute incubation was less than 7% of the quantity noted in the TCA precipitable of T8 and NK cell sonicates. Furthermore, little or no TCA insoluble product was produced by other non-lymphoid cell types such as dermal fibroblasts or a renal cell carcinoma line, Cur, which have been previously noted to be resistant to the toxicity of Leu-Leu-OMe (J. Immunol 1986: 136:1038-1048). […] As proteinase K digestion removed this product, it was likely to be a larger peptide or protein into which [^3 H]Leu had been incorporated.

[8] = molecular target: T1, dipeptidyl peptidase I (DPPI); experiment: Polymerization of [3H]Leu-Leu-OMe to a TCA insoluble product by purified enzyme; type: biochemical, bovine
From the text: When R1 and R2 are amino acids with nonpolar side groups, such products are very hydrophobic and water insoluble (J. Biol. Chem. 1952; 195:645-656). […] Of note, much lower extracellular concentrations of Leu-Leu-OMe are required for production of a similar product within NK and T8 cells.

[9] = tested on: production of a TCA insoluble product from [^3 H]Leu-Leu-OMe; type: cell-based, human
From the text: Iodoacetamide nonspecifically binds covalently to free sulfhydryl groups and thereby inhibits thiol protease function as well as other enzymatic reactions dependent on the presence of reduced sulfhydryl groups.

[10] = Expt. 1, LLMe Resistant Lymphocytes
[11] = Expt. 1, Non-adherent Lymphocytes
[12] = second 37° C. incubation 15 minutes
[13] = second 37° C. incubation 30 minutes
[14] = second 37° C. incubation 60 minutes

COC(=O)[C@@H](N)CC(C)C [Leu-OMe, L-leucine methyl ester, reference compound]
competitive inhibition of [3H]Leu-Leu-OMe uptake, in words [1]: do not competitively inhibit PBL uptake of L-Leu-L-Leu-OMe
inhibition at 250 µM ([1]; [3H]Leu-Leu-OMe 10 microM (Table 5)): -10%
RBC lysis in the presence of purified DPPI, in words [2]: not polymerized by DPPI to form a product capable of lysing RBC's
NK activity ([3]; PBM, 5 mM (FIG. 1)): ablated all NK activity
NK toxicity / effect on NK function, in words [3]: had no irreversible effect on NK function

COC(=O)[C@H](Cc1ccccc1)NC(=O)[C@@H](N)CC(C)C [Leu-Phe-OMe] (H-Leu-Phe-OMe)
Percent lysis of target cells ([4]; E:T 25:1, 2.5×10^-5 moles per mouse tail-vein, 2 hours post-injection, Control 8.29): 3.89%
Percent lysis of target cells ([4]; E:T 50:1, same dosing, Control 12.88): 4.68%
Percent lysis of target cells ([4]; E:T 100:1, same dosing, Control 20.60): 6.91%
Percent lysis of target cells ([4]; E:T 200:1, same dosing, Control 29.29): 11.91%
decrease in splenic lytic activity against YAC-1 tumor targets ([4]; about 1×10^-3 moles per kg tail-vein): greater than 75%
activity and appearance post-injection [5]: exhibited decreased activity and an apparent increase in sleep
inhibition at 250 µM ([1]; [3H]Leu-Leu-OMe 10 microM (Table 6)): 72%
NK Toxicity (LD50) ([3]; concentration which results in 50% loss of human NK function, PBL 15 minutes at 22° C.): 29 micro-M
NK toxicity / effect on NK function, in words [3]: produced concentration-dependent ablation of NK function at concentrations comparable to those at which Leu-Leu-OMe was active

COC(=O)[C@H](CC(C)C)NC(=O)[C@@H](N)CC(C)C [[^3 H]Leu--Leu--OMe]
[^3 H]Leu--Leu--OMe Uptake/Binding ([6]; Expt. 1, 0° C.): 0.05 micro-moles/10^6 cells
[^3 H]Leu--Leu--OMe Uptake/Binding ([6]; Expt. 1, 22° C.): 0.77 micro-moles/10^6 cells
[^3 H]Leu--Leu--OMe Uptake/Binding ([6]; Expt. 2, 4° C.): 0.02 micro-moles/10^6 cells
[^3 H]Leu--Leu--OMe Uptake/Binding ([6]; Expt. 2, 22° C.): 0.31 micro-moles/10^6 cells
[^3 H]Leu--Leu--OMe Uptake/Binding ([6]; Expt. 2, 37° C.): 0.52 micro-moles/10^6 cells
Incorporation, Initial [7, 10]: 7,184 cpm
Incorporation, TCA Precipitate [7, 10]: 50 cpm
TCA Precipitate (% of initial) [7, 10]: 0.7%
Incorporation, Initial [7, 11]: 27,870 cpm
TCA Precipitate (% of initial) [7, 11]: 8.4%
Incorporation, TCA Precipitate ([7]; Expt. 1, Non-adherent Lymphocytes, 30 minutes 37° C.): 2,341 cpm
Incorporation, Initial ([7]; Expt. 2, Fibroblasts): 63,229 cpm
Incorporation, TCA Precipitate ([7]; Expt. 2, Fibroblasts): 293 cpm
TCA Precipitate (% of initial) ([7]; Expt. 2, Fibroblasts): 0.5%
Incorporation, Initial ([7]; Expt. 2, Renal Cell Carcinoma): 35,855 cpm
Incorporation, TCA Precipitate ([7]; Expt. 2, Renal Cell Carcinoma): 267 cpm
TCA Precipitate (% of initial) ([7]; Expt. 2, Renal Cell Carcinoma): 0.7%
Incorporation, Initial ([7]; Expt. 2, T4 Cells): 12,200 cpm
Incorporation, TCA Precipitate ([7]; Expt. 2, T4 Cells): 207 cpm
TCA Precipitate (% of initial) ([7]; Expt. 2, T4 Cells): 1.7%
Incorporation, Initial ([7]; Expt. 2, T8, NK Cells): 22,753 cpm
Incorporation, TCA Precipitate ([7]; Expt. 2, T8, NK Cells): 3,208 cpm
TCA Precipitate (% of initial) ([7]; Expt. 2, T8, NK Cells): 14.1%
initial uptake by T4 cells relative to equal number of T8 and NK cells ([7]; Expt. 2 of Table 8): approximately 53%
Fractional Conversion of [^3 H]Leu--Leu--OMe to a product which Precipitates in 10% TCA ([7]; 1 micro-M): < 0.1%
Fractional Conversion of [^3 H]Leu--Leu--OMe to a product which Precipitates in 10% TCA ([7]; 10 micro-M): < 0.2%
Fractional Conversion of [^3 H]Leu--Leu--OMe to a product which Precipitates in 10% TCA ([7]; 100 micro-M): 11.1%
Fractional Conversion of [^3 H]Leu--Leu--OMe to a product which Precipitates in 10% TCA ([7]; 250 micro-M): 23.2%
[^3 H]Leu--Leu--OMe Total ([7]; PBL, 15 minutes 22° C., second 37° C. incubation 0): 61.4 cpm × 10^-3
label in TCA precipitate of T4 cell sonicate relative to T8 and NK cell sonicates ([7]; after 30 minute incubation): less than 7%
[^3 H]Leu--Leu--OMe TCA Prec. ([7]; second 37° C. incubation 0): 0.5 cpm × 10^-3
[^3 H]Leu--Leu--OMe TCA Prec. [7, 12]: 6.8 cpm × 10^-3
[^3 H]Leu--Leu--OMe Total [7, 12]: 24.9 cpm × 10^-3
[^3 H]Leu--Leu--OMe TCA Prec. [7, 13]: 12.7 cpm × 10^-3
[^3 H]Leu--Leu--OMe Total [7, 13]: 20.6 cpm × 10^-3
[^3 H]Leu--Leu--OMe TCA Prec. [7, 14]: 10.7 cpm × 10^-3
[^3 H]Leu--Leu--OMe Total [7, 14]: 12.7 cpm × 10^-3
Fractional Conversion of [^3 H]Leu--Leu--OMe to a product which Precipitates in 10% TCA ([8]; 1 micro-M): < 0.01%
Fractional Conversion of [^3 H]Leu--Leu--OMe to a product which Precipitates in 10% TCA ([8]; 10 micro-M): 0.03%
Fractional Conversion of [^3 H]Leu--Leu--OMe to a product which Precipitates in 10% TCA ([8]; 100 micro-M): 0.08%
Fractional Conversion of [^3 H]Leu--Leu--OMe to a product which Precipitates in 10% TCA ([8]; 1000 micro-M): 20.0%

NC(=O)CI [Iodoacetamide, iodoacetamide]
[^3 H]Leu--Leu--OMe Incorporation, 10% TCA Precipitate [9]: 243 + 16 cpm
[^3 H]Leu--Leu--OMe Incorporation, Initial [9]: 6,316 + 188 cpm
[^3 H]Leu--Leu--OMe Incorporation, 10% TCA Precipitate ([9]; Expt. 1, Cycloheximide 100 micro-g/ml, PMSF 1 micro-M, Iodoacetamide 0.5 micro-M, Nil 2,160 + 193): 140 + 5 cpm
